In ChEMBL document CHEMBL6078723, “Novel steroidal β-carboline derivatives as promising antibacterial candidates against methicillin-resistant Staphylococcus aureus” (Eur J Med Chem, 2025):
Calls of active or inactive are those of the source. No cut-off for these calls is given here.

Assays:
[1] = test system: Staphylococcus aureus; test: Inhibition of metabolic activity in Staphylococcus aureus CGMCC1.8721; format: functional, organism-based
[2] = test system: Staphylococcus aureus; test: Antibacterial activity against methicillin-resistant Staphylococcus aureus ATCC 33591 in presence of Mg2+ (reference value: 1 ug/ml); format: functional
[3] = test system: Staphylococcus aureus; test: Antibacterial activity against methicillin-resistant Staphylococcus aureus CGMCC1.12409 infected in mouse model assessed as reduction in inflammation in skin tissues at 5 to 10 mg/kg measured for 5 days by H and E staining based analysis; format: functional, organism-based; conditions: dose 5-10 mg/kg, time 5.0 day
[4] = test system: Staphylococcus aureus; test: Bactericidal activity against methicillin-resistant Staphylococcus aureus CGMCC1.12409 by CLSI based method; format: functional

## COc1ccc2[nH]c3c(CC[C@H](C)[C@H]4CC[C@H]5[C@@H]6[C@H](O)C[C@@H]7C[C@H](O)CC[C@]7(C)[C@H]6C[C@H](O)[C@]45C)[n+](Cc4ccc(Cl)cc4)ccc3c2c1.[Br-]
[1]
  inhibition: Dose-dependent-effect
[2]
  MIC: 1 µg/mL
[3]
  Activity: Active
[4]
  MBC: 1 µg/mL
